Data published in patent publication US8716437B2 (priority 2007, dated 2014).

Tests used:
[1] = tested on: KcsA-Kv1.3; test: Phage panning on purified immobilized KcsA-Kv1.3 (KcsA-1.3); assay type: binding; conditions: mixture of five ligands
[2] = tested on: KcsA-1.3; test: Phage ELISA on immobilized KcsA-1.3; assay type: binding; conditions: in words
Description: Panning was performed, in triplicate, on surfaces without a coating (none), and on immobilized KcsA-Kv1.3 receptors (KcsA-Kv1.3), wild-type KcsA receptors (KcsA-WT), and antiserum to sarafotoxin S6b (anti-S6b). The input ligands per well are 10^9, 10^8, 10^7. The ligands included: sarafotoxin S6b (upper panel FIG. 4), kaliotoxin-1 (KTX, middle row FIG. 4), no ligand helper phages (bottom row FIG. 4).
For each binding determination, 3 wells in a NUNC-Immuno MaxiSorp 96-Well plates were coated overnight at 4° C. with 1 ug of KcsA-1.3 or KcsA in 50 ul of 100 mM NaHCO3, 1 mM DDM, pH 9, then washed once with Tris-HC150 mM, NaCl-150 mM pH7.5 containing 0.1% Tween 20, 1 mM DDM (TBST). Wells were then blocked at room temperature with 200 ul of Tris 50 mM NaCl 150 mM pH 7.5, 1 mM DDM, (TBS) containing 0.5% BSA, then washed once with TBST. For each well, 108-1010 phages were added in 50 ul of TBS containing 0.5% BSA and incubated on a rotary shaker at room temperature for 2 hrs. Following five washes with TBST, 50 ul of anti-phage antibody-peroxidase conjugated TBST with 0.5% BSA was added and incubated on a rotary shaker for 2 hours at room temperature, then washed 5 times with TBST and twice with TBS. Fifty (50) ul of 1 step turbo-TMB-ELISA was added and the reaction is stopped by 50 μl of 2M H2SO4 and the absorbancy was read at 450 nm.

[3] = biological target: T1, Kv1.1 (Rattus norvegicus, UniProt P10499); test: Two electrode voltage clamp, Xenopus oocytes, Kv1.1; assay type: cell-based
T1 construct: expressed in transfected cells; host or cells: Xenopus laevis oocytes (cRNA injection)
Description: (§1) To examine the effect of mokatoxin-1 on activity of potassium ion channels, cDNA encoding Rattus Kv1.1 (NCBI accession number NM_173095), Rattus Kv1.2 (NM_012970), Homo Kv1.3 (NM_002232), or Mus BK (NM_010610) were subcloned into oocyte expression vectors based on PCR3.1 and pGEM. cRNA synthesis was performed with T7 polymerase and the mMessageMachine Kit (Ambion, Austin, Tex.) according to manufacturers instructions. cRNA concentrations were determined spectroscopically. For two electrode voltage clamp recordings oocytes were extracted from Xenopus laevis and defoliculated with Collagenase Type 2 (Worthington, Lakewood, N.J.). Oocytes were maintained in ND91 solution containing 2 mM KCl, 91 mM NaCl, 1 mM MgCl2, 1.8 mM CaCl2, and 5 mM HEPES, pH 7.5, supplemented with 1% Penicillin/Streptomycin (Cellgro, Hemdon, Va.) and 0.1% Gentamycin sulfate (Gibco, Grand Island, N.Y.)) at 16° C. Stage V and VI oocytes were injected with 8 pg to 4 ng cRNA, and currents recorded 1 to 4 days later.
(§2) For dose-response measurements of toxin block of Kv1.1, Kv1,2, or Kv1.3 peak currents were recorded during a 500 ms step to 0 mV from a holding voltage of −100 mV, followed by a 200 ms step to −135 mV every 30 s. To determine the kinetics of toxin block oocytes were held at −100 mV and stepped to the test voltage of 0 mV for 100 ms followed by a 200 ms duration step to −135 mV every 2 s. BK currents were recorded during a 50 ms step to +60 mV from a holding voltage of −80 mV, followed by a 40 ms step to −100 mV every 3 s. The perfusion solution contained 2 mM KCl, 96 mM NaCl, 1 mM MgCl2, 1.8 mM CaCl2, 5 mM HEPES, pH 7.5 and 0.1% fatty acid ultra-free BSA fraction V (Roche Diagnostics Corporation, Indianapolis, Ind.). Data acquisition and processing was performed with an oocyte clamp OC-725B (Warner Instruments Corporation, Hamden, Conn.), pCLAMP (Axon, Sunnyvale, Calif.), IGOR Pro (WaveMetrics, Lake Oswego, Oreg.), and Origin6.1 (OriginLab Corporation, Northampton, Mass.) softwares. The equilibrium dissociation rates (KD) for block of Kv1.1, Kv1.2, and Kv1.3 by mokatoxin-1 were determined by fitting the dose-response data and kon and koff were calculated as described by Goldstein and Miller, 1993 (Biophys J. 1993 65 (4):1613-1619).

[4] = tested on: guinea pig ileum; test: Spontaneous motility (twitches) of guinea pig ileum strips; conditions: reference toxins 10 nM; mokatoxin-1 1-100 nM
[5] = biological target: Kv1.3 (Homo sapiens, UniProt P22001); test: Two electrode voltage clamp, Xenopus oocytes, Kv1.3; assay type: cell-based; parameters: expressed in transfected cells; host or cells: Xenopus laevis oocytes (cRNA injection)
Description: Thereafter, MK-1 was synthesized. […] The blocking of […] by MK-1 is represented by filled circles; the blocking of Kv1.2 by MK-1 is represented by filled diamonds; and the blocking of Kv1.1 by MK-1 is represented by filled triangles.
as §1, §2

Chain of Kv1.3 (P22001 whole entry): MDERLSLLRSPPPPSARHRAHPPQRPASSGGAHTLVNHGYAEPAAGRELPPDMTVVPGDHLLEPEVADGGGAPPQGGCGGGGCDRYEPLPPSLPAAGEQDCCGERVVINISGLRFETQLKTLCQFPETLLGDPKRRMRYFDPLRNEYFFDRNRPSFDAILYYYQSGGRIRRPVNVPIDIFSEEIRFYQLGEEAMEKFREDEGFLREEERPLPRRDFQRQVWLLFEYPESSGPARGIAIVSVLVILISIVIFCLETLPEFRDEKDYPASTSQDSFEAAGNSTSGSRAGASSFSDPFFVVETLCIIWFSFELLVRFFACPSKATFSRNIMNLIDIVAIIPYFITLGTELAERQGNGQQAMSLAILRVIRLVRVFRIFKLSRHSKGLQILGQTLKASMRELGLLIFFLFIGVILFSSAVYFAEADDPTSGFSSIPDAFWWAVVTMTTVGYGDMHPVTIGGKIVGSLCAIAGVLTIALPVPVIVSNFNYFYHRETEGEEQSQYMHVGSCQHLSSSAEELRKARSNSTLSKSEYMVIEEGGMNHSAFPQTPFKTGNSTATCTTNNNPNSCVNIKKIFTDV
T1 sequence (P10499 whole entry): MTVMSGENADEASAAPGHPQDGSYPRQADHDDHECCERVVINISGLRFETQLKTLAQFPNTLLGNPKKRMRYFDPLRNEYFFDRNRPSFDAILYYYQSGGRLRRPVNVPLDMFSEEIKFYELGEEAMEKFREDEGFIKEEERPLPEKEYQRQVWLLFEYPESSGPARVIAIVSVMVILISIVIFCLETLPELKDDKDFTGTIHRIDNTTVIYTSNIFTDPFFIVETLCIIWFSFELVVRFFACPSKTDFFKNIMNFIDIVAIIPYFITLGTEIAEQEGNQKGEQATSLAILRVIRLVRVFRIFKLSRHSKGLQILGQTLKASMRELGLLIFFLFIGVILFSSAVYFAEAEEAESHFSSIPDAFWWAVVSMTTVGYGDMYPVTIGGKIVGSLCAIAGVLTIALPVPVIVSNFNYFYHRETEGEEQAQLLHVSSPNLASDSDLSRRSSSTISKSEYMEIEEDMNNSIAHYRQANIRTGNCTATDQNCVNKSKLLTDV

CC[C@H](C)[C@H](NC(=O)[C@H](CCC(=O)O)NC(=O)[C@@H](NC(=O)CN)C(C)C)C(=O)N[C@@H](CC(N)=O)C(=O)N[C@H](C(=O)N[C@@H](CCCCN)C(=O)N[C@H]1CSSC[C@@H]2NC(=O)[C@H](CCCCN)NC(=O)CNC(=O)[C@H](Cc3ccccc3)NC(=O)[C@H](CCCNC(=N)N)NC(=O)[C@H](CCSC)NC(=O)CNC(=O)[C@H](C)NC(=O)[C@H](CC(=O)O)NC(=O)[C@H](CCCCN)NC(=O)[C@@H]3CSSC[C@@H](C(=O)N[C@H](C(=O)N4CCC[C@H]4C(=O)N[C@@H](CCCCN)C(=O)O)[C@@H](C)O)NC(=O)[C@H](Cc4c[nH]cn4)NC(=O)[C@H](CSSC[C@H](NC(=O)[C@H](CCC(N)=O)NC(=O)[C@@H]4CCCN4C(=O)[C@H](CO)NC(=O)CNC(=O)[C@H](CO)NC1=O)C(=O)N[C@@H](CC(C)C)C(=O)N[C@@H](CCCCN)C(=O)N1CCC[C@H]1C(=O)N3)NC(=O)[C@H](CCCCN)NC(=O)[C@H](CCCNC(=N)N)NC(=O)[C@H](CC(N)=O)NC(=O)[C@H](CCSC)NC2=O)C(C)C [KTX, kaliotoxin-1]
enrichment after one round of panning [1]: 3.6 fold
Output (% Ligands) KcsA-Kv.13 (n = 20) ([1]; one round of panning): 100%
binding of phage to KcsA-1.3 (KcsA-Kv1.3) [2]: specific binding
IC50 [3]: 0.1 nM
Koff [s]^−1 ([3]; rKv1.1): 0.009 ± 0.002 [s]^−1
Kon [M · s]^−1 ([3]; rKv1.1): 30 · 10^6 ± 16 · 10^6 [M · s]^−1
induction of twitches in ileum strips [4]: induced twitches
IC50 [5]: 0.5 nM
Koff [s]^−1 ([5]; hKv1.3): 0.0070 ± 0.0009 [s]^−1
Kon [M · s]^−1 ([5]; hKv1.3): 8 · 10^8 ± 1 · 10^8 [M · s]^−1
